Laboratory results reported in patent US20150224164A1, “TREATMENT OF AUTISM SPECTRUM DISORDERS USING GLYCYL-L-2-METHYLPROLYL-L-GLUMATIC ACID” (Neuren Pharmaceuticals Limited, priority 2013, published 2015).
Where a SMILES comes first, the peptide text is derived from it.

How the values were obtained:
GFAP-positive astrocytes = assay: Astrocytosis, GFAP staining in aged brains; type: in vivo, rat; details: 18-month old rats; i.p.; 3 d; particularly 0.12 and 12 mg/kg; p<0.05
Experimental: To carry out these studies, tissues were fixed and embedded in paraffin and sections obtained using standard methods. Coronal sections (6 μm) containing the level of the hippocampus were cut and mounted on chrome-alum-coated slides for staining. The sections were deparaffinized in xylene, […] in a series of ethanol and incubated in 0.1 M phosphate buffered saline (PBS). Primary antibodies against glial fibrillary acidic protein (GFAP) and proliferating cell nuclear antigen (PCNA) were used to mark reactive glial cells and cells undergoing apoptosis and proliferation, respectively. For antigen unmasking (caspase-3 and PCNA staining), sections were heated in 10 mM sodium citrate buffer (pH 6.0) for 1 min at high power. All sections were pretreated with 1% H2O2 in 50% methanol for 30 min to quench the endogenous peroxidase activity. […] The number of PCNA positive cells was counted in the subventricular zone and the GFAP positive cells was scored in the cerebral cortex. We also evaluated effects of G-2-MePE on astrocytosis in the CA4 sub-region of the hippocampus in aged rats. […] GFAP-positive cells were counted using a computerised program (Discovery 1). G-2-MePE was administered intra-peritoneally and the numbers of GFAP-positive cells were assessed 3d after the injection. […]

[1] = system: hippocampus slices from MeCP2 deficient mice; assay: Hippocampal long-term potentiation, fEPSP slope (Example 8); type: in vivo, mouse; details: 20 mg/kg/day i.p. week 4 to 9; vs saline
From the text: MeCP2 deficient mice have been previously reported to suffer from functional and ultrastructural synaptic dysfunction, significant impairment of hippocampus-dependent memory and hippocampal long-term potentiation (LTP) (Moretti et al. The Journal of Neuroscience. 2006. 26(1):319-327). To test the effects of the G-2-MePE treatment on synaptic function in the RTT model we compared hippocampal LTP in both vehicle and G-2-MePE treated animals at 9 weeks of age. To do so, we measured the slope of the fEPSP as a % of baseline potential in neurons in slices of hippocampus from MeCP2 deficient mice treated with either saline or G-2-MePE (FIG. 23).

MeCP2-/y mice = assay: Life span (Example 10); type: in vivo, mouse; details: 20 mg/kg i.p. daily from P15; vs MeCP2 KO littermates
Experimental: For the survival measurements, the nocturnal activity analysis and the immunoblot analysis, G-2-MePE (synthesised Albany Molecular Research Inc. (Albany, N.Y.) and supplied by Neuren Pharmaceuticals Limited) is administered daily via intra-peritoneal injections (20 mg/kg, vehicle=saline, 0.01% BSA). The treatment starts at P15 and is maintained throughout the course of the experiments. For intracellular physiology experiments, the mice are injected daily with G-2-MePE (20 mg/kg body weight, vehicle=saline, 0.01% BSA) for 2 weeks, from P15 to P28-P32 when they are used for acute slice preparation. For optical imaging experiments, mice are injected with G-2-MePE (20 mg/kg body weight, vehicle=saline, 0.01% BSA) daily from the day of the lid suture to the day of imaging.

[2] = system: fmr1 KO hippocampal neurons; assay: Dendritic spine density in hippocampal primary cell cultures (microfluidic chamber, GFP); type: cell-based, mouse; details: 0.5 nM, n=3 independent experiments
Experimental: Hippocampal cell cultures were prepared from wild-type and fmr1 KO foetal mice (14-16 d of gestation). After 3d in vitro, green fluorescent protein (GFP) was used to monitor dendritic spine density during time-course of culture (Ethell and Yamaguchi, 1999; Ethell et al., 2001, Henkemeyer et al., 2003). Dendritic spines are usually formed between 7 and 14 days in vitro (DIV). By 14 DIV most dendritic protrusions are spines. We evaluated the effect of G-2-MePE, a positive control (the mGluR5 antagonist 2-methyl-6-(phenylethynyl)-pyridine or MPEP) and vehicle controls on dendritic spine density in fmr1 KO and WT hippocampal primary cell cultures. Fmr1 KO and wild-type cultures were treated at 17 DIV.
We used the compartmentalized culture system, a microfluidic chamber (see FIG. 31A) which opens the possibility for fast drug testing with the capacity to detect in vitro drug effects such as spine morphology, neurite outgrowth and synapse formation. The treated and untreated neurons in the compartmentalized chambers can be also being use for western blot analysis. The compartmentalised culture is a new approach to evaluate the effect of drugs on anterograde and retrograde transport of messengers and proteins relevant to FXS. Other new possibility that offers this approach its access into exclusive axon compartment, in this area immunodetection and treatments are also possible. […]

## C[C@@]1(C(=O)N[C@@H](CCC(=O)O)C(=O)O)CCCN1C(=O)CN [Example G-2-MePE, Glycyl-L-2-methylprolyl-L-glutamic acid] (HELM PEPTIDE1{G.[C[C@@]1(C(=O)[*:2])CCCN1[*:1]].E}$$$$V2.0)
GFAP-positive astrocytes
  number of reactive astrocytes (GFAP) in CA4 region of hippocampus: reduced number of reactive astrocytes
[1]
  slope of fEPSP (LTP): increased the slope
MeCP2-/y mice
  increase in life expectancy (0.5 probability survival rate): ~50%
[2]
  dendritic spine density (mean±SD): 0.33±0.07 spines per micrometer
